From patent US9174964B2, “AMPK-activating piperidinyloxy-substituted 2,3-dihydro-1H-indene-1-amine compounds and pharmaceutical compositions including the same” (Rigel Pharmaceuticals, Inc., priority 2007, dated 2015)
pEC50: −log10 of the molar value. Where a name gives a salt, the structure may show the parent alone.

target: AMPK; test: AMPK activation, enzyme-linked immunosorbent assay; type: biochemical; settings: Table 4, AMPK activation, ELISA
Method: Compounds 1-50 of Table 1 were assayed for their ability to activate AMPK using an enzyme-linked immunosorbent assay.
Compounds 51-60 of Table 1 were assayed for their ability to activate AMPK using an enzyme-linked immunosorbent assay.
Compounds 61-131 of Table 1 were assayed for their ability to activate AMPK using an enzyme-linked immunosorbent assay.
Compounds 137-141 and 143-155 of Table 1 were assayed for their ability to activate AMPK using an enzyme-linked immunosorbent assay.
Compounds 156-160 of Table 1 were assayed for their ability to activate AMPK using an enzyme-linked immunosorbent assay.

| Compound | pEC50 |
| --- | --- |
| Cc1c(C(=O)NC2CCN(Cc3ccccc3C#N)CC2)oc2cc(OC3CCN(c4ccc(C(F)(F)F)cc4)CC3)ccc12 [Compound 67, N-(1-(2-cyanobenzyl)piperidin-4-yl)-3-methyl-6-(1-(4-(trifluoromethyl)phenyl)piperidin-4-yloxy)benzofuran-2-carboxamide] | > 7.00 |
| Cc1c(C(=O)NC2CCN(Cc3ccccn3)CC2)oc2cc(OC3CCN(c4ccc(C(F)(F)F)cc4)CC3)ccc12 [Compound 68, 3-methyl-N-(1-(pyridin-2-ylmethyl)piperidin-4-yl)-6-(1-(4-(trifluoromethyl)phenyl)piperidin-4-yloxy)benzofuran-2-carboxamide] | > 7.00 |
| Cc1c(C(=O)NC2CCN(Cc3cccnc3)CC2)oc2cc(OC3CCN(c4ccc(C(F)(F)F)cc4)CC3)ccc12 [Compound 69, 3-methyl-N-(1-(pyridin-3-ylmethyl)piperidin-4-yl)-6-(1-(4-(trifluoromethyl)phenyl)piperidin-4-yloxy)benzofuran-2-carboxamide] | > 7.00 |
| N#Cc1ccc(CN2CCC(Oc3ccc4oc(C(=O)NC5CCN(Cc6ccccc6)CC5)cc4c3)CC2)cc1 [Compound 70, N-(1-benzylpiperidin-4-yl)-5-(1-(4-cyanobenzyl)piperidin-4-yloxy)benzofuran-2-carboxamide] | > 7.00 |
| N#Cc1ccc(N2CCC(Oc3ccc4oc(C(=O)NC5CCN(Cc6ccccc6)CC5)cc4c3)CC2)cc1 [Compound 71, N-(1-benzylpiperidin-4-yl)-5-(1-(4-cyanophenyl)piperidin-4-yloxy)benzofuran-2-carboxamide formate salt] | > 7.00 |
| O=C(NC1CCN(Cc2ccccc2)CC1)c1cc2cc(OC3CCN(Cc4ccc(Cl)cc4)CC3)ccc2o1 [Compound 72, N-(1-benzylpiperidin-4-yl)-5-(1-(4-chlorobenzyl)piperidin-4-yloxy)benzofuran-2-carboxamide] | 6.30 to 7.00 |
| O=C(NC1CCN(Cc2ccccc2)CC1)c1cc2cc(OC3CCN(Cc4cccc(C(F)(F)F)c4)CC3)ccc2o1 [Compound 73, N-(1-benzylpiperidin-4-yl)-5-(1-(3-(trifluoromethyl)benzyl)piperidin-4-yloxy)benzofuran-2-carboxamide] | 6.00 to 6.30 |
| O=C(NC1CCN(Cc2ccncc2)CC1)c1cc2cc(OC3CCN(c4ccc(C(F)(F)F)cc4)CC3)ccc2o1 [Compound 76, N-(1-(pyridin-4-ylmethyl)piperidin-4-yl)-5-(1-(4-(trifluoromethyl)phenyl)piperidin-4-yloxy)benzofuran-2-carboxamide] | 6.30 to 7.00 |
| O=C(NC1CCN(Cc2ccncc2)CC1)c1cc2cc(OC3CCN(c4ccc(OC(F)(F)F)cc4)CC3)ccc2o1 [Compound 78, N-(1-(pyridin-4-ylmethyl)piperidin-4-yl)-5-(1-(4-(trifluoromethoxy)phenyl)piperidin-4-yloxy)benzofuran-2-carboxamide trifluoroacetate salt] | > 7.00 |
| CC(C)(C)OC(=O)N1CCC(NC(=O)c2cc3ccc(OC4CCN(c5ccc(OC(F)(F)F)cc5)CC4)cc3o2)CC1 [Compound 81, tert-butyl 4-(6-(1-(4-(trifluoromethoxy)phenyl)piperidin-4-yloxy)benzofuran-2-carboxamido)piperidine-1-carboxylate] | 6.30 to 7.00 |
| CC(C)(C)OC(=O)N1CCC(NC(=O)c2cc3ccc(OC4CCN(c5ccc(C(F)(F)F)cc5)CC4)cc3o2)CC1 [Compound 82, tert-butyl 4-(6-(1-(4-(trifluoromethyl)phenyl)piperidin-4-yloxy)benzofuran-2-carboxamido)piperidine-1-carboxylate] | 6.30 to 7.00 |
| O=C(NC1CCNCC1)c1cc2ccc(OC3CCN(c4ccc(OC(F)(F)F)cc4)CC3)cc2o1 [Compound 83, N-(piperidin-4-yl)-6-(1-(4-(trifluoromethoxy)phenyl)piperidin-4-yloxy)benzofuran-2-carboxamide hydrochloride] | 6.30 to 7.00 |
| O=C(NC1CCNCC1)c1cc2ccc(OC3CCN(c4ccc(C(F)(F)F)cc4)CC3)cc2o1 [Compound 84, N-(piperidin-4-yl)-6-(1-(4-(trifluoromethyl)phenyl)piperidin-4-yloxy)benzofuran-2-carboxamide hydrochloride] | 4.30 to 5.00 |
| CC(C)(C)OC(=O)N1CCC(NC(=O)c2cc3cc(OC4CCN(c5ccc(C(F)(F)F)cc5)CC4)ccc3o2)CC1 [Compound 85, tert-butyl 4-(5-(1-(4-(trifluoromethyl)phenyl)piperidin-4-yloxy)benzofuran-2-carboxamido)piperidine-1-carboxylate] | 6.00 to 6.30 |
| O=C(NC1CCN(Cc2ccncc2)CC1)c1cc2ccc(OC3CCN(c4ccc(C(F)(F)F)cc4)CC3)cc2o1 [Compound 87, N-(1-(pyridin-4-ylmethyl)piperidin-4-yl)-6-(1-(4-(trifluoromethyl)phenyl)piperidin-4-yloxy)benzofuran-2-carboxamide] | > 7.00 |
| O=C(NC1CCN(Cc2ccccn2)CC1)c1cc2ccc(OC3CCN(c4ccc(OC(F)(F)F)cc4)CC3)cc2o1 [Compound 92, N-(1-(pyridin-2-ylmethyl)piperidin-4-yl)-6-(1-(4-(trifluoromethoxy)phenyl)piperidin-4-yloxy)benzofuran-2-carboxamide] | 6.00 to 6.30 |
| O=C(NC1CCN(Cc2ccccn2)CC1)c1cc2ccc(OC3CCN(c4ccc(C(F)(F)F)cc4)CC3)cc2o1 [Compound 93, N-(1-(pyridin-2-ylmethyl)piperidin-4-yl)-6-(1-(4-(trifluoromethyl)phenyl)piperidin-4-yloxy)benzofuran-2-carboxamide] | 6.30 to 7.00 |
| O=C(NC1CCN(Cc2ccc(F)cc2)CC1)c1cc2ccc(OC3CCN(c4ccc(OC(F)(F)F)cc4)CC3)cc2o1 [Compound 94, N-(1-(4-fluorobenzyl)piperidin-4-yl)-6-(1-(4-(trifluoromethoxy)phenyl)piperidin-4-yloxy)benzofuran-2-carboxamide] | > 7.00 |
| O=C(NC1CCN(Cc2cccnc2)CC1)c1cc2ccc(OC3CCN(c4ccc(OC(F)(F)F)cc4)CC3)cc2o1 [Compound 95, N-(1-(pyridin-3-ylmethyl)piperidin-4-yl)-6-(1-(4-(trifluoromethoxy)phenyl)piperidin-4-yloxy)benzofuran-2-carboxamide] | > 7.00 |
| N#Cc1ccccc1CN1CCC(NC(=O)c2cc3ccc(OC4CCN(c5ccc(OC(F)(F)F)cc5)CC4)cc3o2)CC1 [Compound 97, N-(1-(2-cyanobenzyl)piperidin-4-yl)-6-(1-(4-(trifluoromethoxy)phenyl)piperidin-4-yloxy)benzofuran-2-carboxamide] | > 7.00 |

Continued, values first:

| pEC50 | Compound |
| --- | --- |
| 6.30 to 7.00 | O=C(NC1CCN(Cc2ccccc2)CC1)c1cc2cc(OC3CCN(Cc4ccc(F)c(F)c4)CC3)ccc2o1 [Compound 74, N-(1-benzylpiperidin-4-yl)-5-(1-(3,4-difluorobenzyl)piperidin-4-yloxy)benzofuran-2-carboxamide] |
| > 7.00 | O=C(NC1CCN(Cc2ccccc2)CC1)c1cc2cc(OC3CCN(c4ccc(C(F)(F)F)cc4)CC3)ccc2o1 [Compound 75, N-(1-benzylpiperidin-4-yl)-5-(1-(4-(trifluoromethyl)phenyl)piperidin-4-yloxy)benzofuran-2-carboxamide] |
| 6.30 to 7.00 | O=C(NC1CCN(Cc2ccncc2)CC1)c1cc2cc(OC3CCN(Cc4ccc(Cl)cc4)CC3)ccc2o1 [Compound 77, 5-(1-(4-chlorobenzyl)piperidin-4-yloxy)-N-(1-(pyridin-4-ylmethyl)piperidin-4-yl)benzofuran-2-carboxamide] |
| 6.30 to 7.00 | N#Cc1ccc(CN2CCC(Oc3ccc4oc(C(=O)NC5CCN(Cc6ccncc6)CC5)cc4c3)CC2)cc1 [Compound 79, 5-(1-(4-cyanobenzyl)piperidin-4-yloxy)-N-(1-(pyridin-4-ylmethyl)piperidin-4-yl)benzofuran-2-carboxamide] |
| > 7.00 | O=C(NC1CCN(Cc2ccccc2)CC1)c1cc2cc(OC3CCN(c4ccc(OC(F)(F)F)cc4)CC3)ccc2o1 [Compound 80, N-(1-benzylpiperidin-4-yl)-5-(1-(4-(trifluoromethoxy)phenyl)piperidin-4-yloxy)benzofuran-2-carboxamide trifluoroacetate salt] |
| < 4.30 | O=C(NC1CCNCC1)c1cc2cc(OC3CCN(c4ccc(C(F)(F)F)cc4)CC3)ccc2o1 [Compound 86, N-(piperidin-4-yl)-5-(1-(4-(trifluoromethyl)phenyl)piperidin-4-yloxy)benzofuran-2-carboxamide hydrochloride] |
| > 7.00 | O=C(NC1CCN(Cc2ccncc2)CC1)c1cc2ccc(OC3CCN(c4ccc(OC(F)(F)F)cc4)CC3)cc2o1 [Compound 88, N-(1-(pyridin-4-ylmethyl)piperidin-4-yl)-6-(1-(4-(trifluoromethoxy)phenyl)piperidin-4-yloxy)benzofuran-2-carboxamide] |
| > 7.00 | N#Cc1ccc(CN2CCC(NC(=O)c3cc4ccc(OC5CCN(c6ccc(OC(F)(F)F)cc6)CC5)cc4o3)CC2)cc1 [Compound 89, N-(1-(4-cyanobenzyl)piperidin-4-yl)-6-(1-(4-(trifluoromethoxy)phenyl)piperidin-4-yloxy)benzofuran-2-carboxamide] |
| > 7.00 | N#Cc1ccc(CN2CCC(NC(=O)c3cc4ccc(OC5CCN(c6ccc(C(F)(F)F)cc6)CC5)cc4o3)CC2)cc1 [Compound 90, N-(1-(4-cyanobenzyl)piperidin-4-yl)-6-(1-(4-(trifluoromethyl)phenyl)piperidin-4-yloxy)benzofuran-2-carboxamide] |
| < 4.30 | O=C(NC1CCN(Cc2ccc(F)cc2)CC1)c1cc2ccc(OC3CCN(c4ccc(C(F)(F)F)cc4)CC3)cc2o1 [Compound 91, N-(1-(4-fluorobenzyl)piperidin-4-yl)-6-(1-(4-(trifluoromethyl)phenyl)piperidin-4-yloxy)benzofuran-2-carboxamide] |
| > 7.00 | O=C(NC1CCN(Cc2cccnc2)CC1)c1cc2ccc(OC3CCN(c4ccc(C(F)(F)F)cc4)CC3)cc2o1 [Compound 96, N-(1-(pyridin-3-ylmethyl)piperidin-4-yl)-6-(1-(4-(trifluoromethyl)phenyl)piperidin-4-yloxy)benzofuran-2-carboxamide] |
